Test [1] concerns human iPSC neurons, astrocytes and microglia treated with 5 μM sAβ42s. The test can be described thus: Focused small molecule screen, triple culture (neuron, astrocyte, microglia), rescue from sAβ42s toxicity. It counts as cell-based. The note with it: for percent rescue from sAβ42s toxicity at 50 µM / percent rescue from sAβ42s toxicity at 12.5 µM: Homo sapiens, iPSC. The procedure, abridged: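 Human iPSC neuron-astrocyte co-cultures (8 weeks old), with or without added iPSC microglia (8,000 cells/well), were exposed to 5 μM sAβ42s together with compounds at up to four concentrations: 50–6.25 μM for double cultures and 50–0.78 μM for triple cultures. Rescue of MAP2, synapsin 1/2, CUX2 count or axon (NFL-H/βIII-tubulin) readouts of ≥30% was scored as a hit.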

The subject of test [2] is human iPSC neurons and astrocytes treated with 5 μM sAβ42s. The test can be described thus: Focused small molecule screen, double culture (neuron, astrocyte), rescue from sAβ42s toxicity, high content imaging. It counts as cell-based. The settings on record: double culture, 5 μM sAβ42s; for percent rescue from sAβ42s toxicity at 25 µM / percent rescue from sAβ42s toxicity at 50 µM / percent rescue from sAβ42s toxicity at 6.25 µM / percent rescue from sAβ42s toxicity at 12.5 µM: Homo sapiens, iPSC. In a few lines:
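Human iPSC neuron–astrocyte cultures given 5 μM sAβ42 oligomers plus compounds at 50, 25, 12.5 and 6.25 μM (10× additions). Fixed cells immunostained for MAP2, synapsin 1/2, CUX2 and beta III tubulin, imaged by confocal high-content microscopy; % rescue computed, ≥30% in any readout scored as hit.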

Setting [3] is: 50.00 μM compound, read-out: % B3T rescue.
The mark [4] stands for this setting: 50.00 μM compound, read-out: % MAP2 rescue.
Where [5] appears, read: 50.00 μM compound, read-out: % Synapse rescue.
[6] abbreviates: 25 μM compound, read-out: % B3T rescue.
The mark [7] stands for this setting: 25 μM compound, read-out: % Cux2 rescue.
[8] abbreviates: 25 μM compound, read-out: % MAP2 rescue.
Setting [9] is: 25 μM compound, read-out: % Synapse rescue.
Where [10] appears, read: 50 μM compound, read-out: % B3T rescue.
[11] abbreviates: 50 μM compound, read-out: % Cux2 rescue.
The mark [12] stands for this setting: 50 μM compound, read-out: % MAP2 rescue.
Setting [13] is: 50 μM compound, read-out: % Synapse rescue.

These results are taken from patent US20230014181A1, “CULTURE SYSTEM AND METHODS FOR IMPROVED MODELING OF NEUROLOGICAL CONDITIONS” (Genentech, Inc., priority 2021, published 2023).

The structures appear in SMILES notation. Read-outs that look alike come from different tables or passages of the source. Where a SMILES comes first, the peptide text is derived from it. The star is where a group is joined. Cbz = O=C(OCc1ccccc1)*

Take `O=C1Nc2ccc3ncsc3c2/C1=C/Nc1ccc(S(=O)(=O)Nc2ccccn2)cc1` [GW8510]: the “% B3T rescue” value in test [1] (0.78 μM compound) is 45%; in test [1] (3.13 μM compound) it was 70%; in test [1] (12.50 μM compound) it was 68%; in test [1] (50.00 μM compound), 63%; in test [2] (6.25 μM compound), 32%; in test [2] (12.5 μM compound) it was 20%. Moreover, the “% B3T rescue” value came to 31% in test [2] (25 μM compound) and 47% in test [2] (50 μM compound). The “% MAP2 rescue” value in test [1] (0.78 μM compound) is reported as −4%; in test [1] (3.13 μM compound) it was 15%; in test [1] (12.50 μM compound), 28%; in test [1] (50.00 μM compound), −8%; in test [2] (6.25 μM compound), 48%; in test [2] (12.5 μM compound), 37%. In addition, the “% MAP2 rescue” value in test [2] (25 μM compound) was 37%; in test [2] (50 μM compound) it was 52%. Also, the “% Synapse rescue” value was 8% in test [1] (0.78 μM compound); 25% in test [1] (3.13 μM compound); 32% in test [1] (12.50 μM compound); −15% in test [1] (50.00 μM compound); 52% in test [2] (6.25 μM compound); 38% in test [2] (12.5 μM compound). In addition, the “% Synapse rescue” value in test [2] (25 μM compound) stood at 38%; in test [2] (50 μM compound) it was 49%. In addition, the “% Cux2 rescue” value in test [2] (6.25 μM compound) is −1%; in test [2] (12.5 μM compound) it was 16%; in test [2] (25 μM compound), −18%; in test [2] (50 μM compound), −22%.

Turning to `O=c1cc(-c2ccc(O)c(O)c2)oc2cc(O)cc(O)c12` [Luteolin], the percent rescue from sAβ42s toxicity at 50 µM in test [1] (setting [3]) is 91%; in test [1] (setting [4]), 73%; in test [1] (setting [5]), 75%; in test [2] (setting [10]), 66%; in test [2] (setting [11]), 19%; in test [2] (setting [12]), 55%. Besides, the percent rescue from sAβ42s toxicity at 50 µM in test [2] (setting [13]) was determined as 37%. Further, the percent rescue from sAβ42s toxicity at 25 µM turned out to be 29% in test [2] (setting [6]), 12% in test [2] (setting [7]), 26% in test [2] (setting [8]) and 13% in test [2] (setting [9]).

As for `CC(C)C[C@@H](C=O)NC(=O)[C@H](CC(C)C)NC(=O)[C@H](CC(C)C)NC(=O)OCc1ccccc1` [MG-132] (Cbz-Leu-Leu-Leu-aldehyde), the percent rescue from sAβ42s toxicity at 12.5 µM was 35% in test [1] (12.50 μM compound, read-out: % B3T rescue); 18% in test [1] (12.50 μM compound, read-out: % MAP2 rescue); -7% in test [1] (12.50 μM compound, read-out: % Synapse rescue); 7% in test [2] (12.5 μM compound, read-out: % B3T rescue); 87% in test [2] (12.5 μM compound, read-out: % Cux2 rescue); 24% in test [2] (12.5 μM compound, read-out: % MAP2 rescue). For the same compound, the percent rescue from sAβ42s toxicity at 12.5 µM in test [2] (12.5 μM compound, read-out: % Synapse rescue) was 4%. Further, the percent rescue from sAβ42s toxicity at 50 µM in test [1] (setting [3]) is 46%; in test [1] (setting [4]), 25%; in test [1] (setting [5]), -11%; in test [2] (setting [10]), 57%; in test [2] (setting [11]), 90%; in test [2] (setting [12]) it was 25%. The percent rescue from sAβ42s toxicity at 50 µM in test [2] (setting [13]) is 4%. For the same compound, the percent rescue from sAβ42s toxicity at 6.25 µM in test [2] (6.25 μM compound, read-out: % B3T rescue) is -3%; in test [2] (6.25 μM compound, read-out: % Cux2 rescue), 80%; in test [2] (6.25 μM compound, read-out: % MAP2 rescue) it was 18%; in test [2] (6.25 μM compound, read-out: % Synapse rescue) it was -6%. Further, the percent rescue from sAβ42s toxicity at 25 µM in test [2] (setting [6]) amounted to 30%; in test [2] (setting [7]), 91%; in test [2] (setting [8]), 26%; in test [2] (setting [9]), 8%.

Consider `C=C[C@@]1(C)CC(=O)[C@]2(O)[C@@]3(C)[C@@H](O)CCC(C)(C)[C@@H]3[C@H](OC(=O)CCN(C)C)[C@H](OC(C)=O)[C@@]2(C)O1.Cl` [NKH 477], for which the “% B3T rescue” value is given as 42% in test [1] (3.13 μM compound); 49% in test [1] (12.50 μM compound); 81% in test [1] (50.00 μM compound); 38% in test [2] (6.25 μM compound); 38% in test [2] (12.5 μM compound); 35% in test [2] (25 μM compound). Also, the “% B3T rescue” value in test [2] (50 μM compound) amounted to 38%. The “% MAP2 rescue” value in test [1] (3.13 μM compound) was 17%; in test [1] (12.50 μM compound) it was 9%; in test [1] (50.00 μM compound) it was 53%; in test [2] (6.25 μM compound), 39%; in test [2] (12.5 μM compound), 45%; in test [2] (25 μM compound), 43%. The “% MAP2 rescue” value in test [2] (50 μM compound) came out at 44%. The “% Synapse rescue” value in test [1] (3.13 μM compound) is 12%; in test [1] (12.50 μM compound), 8%; in test [1] (50.00 μM compound), 38%; in test [2] (6.25 μM compound) it was 7%; in test [2] (12.5 μM compound), 5%; in test [2] (25 μM compound) it was −4%. For the same compound, in test [2] (50 μM compound), the “% Synapse rescue” value was −5%. The “% Cux2 rescue” value is 21% in test [2] (6.25 μM compound), 24% in test [2] (12.5 μM compound), 21% in test [2] (25 μM compound) and 45% in test [2] (50 μM compound).

Turning to `CC(=O)c1c(C)c2cnc(Nc3ccc(N4CCNCC4)cn3)nc2n(C2CCCC2)c1=O` [PD 0332991 isethionate], the percent rescue from sAβ42s toxicity at 50 µM in test [1] (setting [3]) is 90%; in test [1] (setting [4]), -79%; in test [1] (setting [5]) it was -29%; in test [2] (setting [10]) it was 69%; in test [2] (setting [11]), -37%; in test [2] (setting [12]) it was -97%. In test [2] (setting [13]), the percent rescue from sAβ42s toxicity at 50 µM was -15%.

For the compound `COC(=O)C1(C)c2[nH]c3ccccc3c2CCN1C(=O)CCl` (stereo not drawn) [PDI Inhibitor 16F16], the “% B3T rescue” value is 71% in test [1] (3.13 μM compound); 43% in test [1] (12.50 μM compound); 42% in test [1] (50.00 μM compound); 27% in test [2] (6.25 μM compound); 3% in test [2] (12.5 μM compound); −46% in test [2] (25 μM compound). Moreover, in test [2] (50 μM compound), the “% B3T rescue” value is on record as −22%. Also, the “% MAP2 rescue” value in test [1] (3.13 μM compound) was 44%; in test [1] (12.50 μM compound) it was −6%; in test [1] (50.00 μM compound) it was −5%; in test [2] (6.25 μM compound) it was 6%; in test [2] (12.5 μM compound), 1%; in test [2] (25 μM compound), −10%. Also, in test [2] (50 μM compound), the “% MAP2 rescue” value is recorded as −12%. Also, the “% Synapse rescue” value was 43% in test [1] (3.13 μM compound); 8% in test [1] (12.50 μM compound); −1% in test [1] (50.00 μM compound); 5% in test [2] (6.25 μM compound); −1% in test [2] (12.5 μM compound); −8% in test [2] (25 μM compound). In addition, in test [2] (50 μM compound), the “% Synapse rescue” value is reported as −13%. The “% Cux2 rescue” value in test [2] (6.25 μM compound) is 46%; in test [2] (12.5 μM compound), 45%; in test [2] (25 μM compound), 66%; in test [2] (50 μM compound), 34%.

For the compound `O=C1NC(=O)c2c1c1c3ccccc3n3c1c1c2c2ccccc2n1C1CCC3O1` [SB 218078], in test [1] (0.78 μM compound), the “% B3T rescue” value is reported as 38%, the “% MAP2 rescue” value was found to be 10% and the “% Synapse rescue” value amounted to 14%. Also, in test [1] (50.00 μM compound), the “% B3T rescue” value is on record as −11%, the “% MAP2 rescue” value worked out at 53% and the “% Synapse rescue” value worked out at 19%. Further, in test [2] (50 μM compound), the “% B3T rescue” value amounted to 72%, the “% Cux2 rescue” value was −39%, the “% MAP2 rescue” value is recorded as −92% and the “% Synapse rescue” value was −15%.

Take `O=C1NC(=O)C(c2ccccc2[N+](=O)[O-])=C1Nc1ccc(O)c(Cl)c1` [SB 415286]: in test [1] (50.00 μM compound), the “% B3T rescue” value is 78%, the “% MAP2 rescue” value came to 42% and the “% Synapse rescue” value is 40%. In test [2] (50 μM compound), the “% B3T rescue” value is given as 39%, the “% Cux2 rescue” value is −13%, the “% MAP2 rescue” value is 19% and the “% Synapse rescue” value is 12%.
